Like-named read-outs stand apart in the source and are kept apart here.
Tests used:
[1] = molecular target: GDP-bound KRAS wild-type protein (Homo sapiens, UniProt P01116); assay: Binding to KRAS by surface plasmon resonance (SPR), dissociation constant KD; conditions: 1:1 binding model
Method in brief: (§1)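 GDP-bound biotin-Avi RAS captured at ~100–300 RU, 30°C, pH 7.4 HBS containing 10 µM GDP, 10 mM MgCl2, 1 mM DTT, 0.01% Tween 20 and 4% DMSO. KD by 1:1 fitting.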

HRAS wild-type protein = HRAS wild-type protein (Homo sapiens, UniProt P01112); assay: Binding to HRAS by surface plasmon resonance (SPR), KD and KD ratio to KRAS
Sequence of HRAS wild-type protein (P01112 whole entry): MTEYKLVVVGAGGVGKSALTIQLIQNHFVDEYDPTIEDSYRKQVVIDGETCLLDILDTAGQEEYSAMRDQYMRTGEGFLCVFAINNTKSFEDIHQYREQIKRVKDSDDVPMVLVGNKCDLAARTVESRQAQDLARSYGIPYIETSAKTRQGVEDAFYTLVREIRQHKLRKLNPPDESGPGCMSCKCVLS
Method in brief: as §1

[2] = molecular target: GDP-bound NRAS wild-type protein (Homo sapiens, UniProt P01111); assay: Binding to NRAS by surface plasmon resonance (SPR), KD and KD ratio to KRAS
Sequence of GDP-bound NRAS wild-type protein (P01111 whole entry): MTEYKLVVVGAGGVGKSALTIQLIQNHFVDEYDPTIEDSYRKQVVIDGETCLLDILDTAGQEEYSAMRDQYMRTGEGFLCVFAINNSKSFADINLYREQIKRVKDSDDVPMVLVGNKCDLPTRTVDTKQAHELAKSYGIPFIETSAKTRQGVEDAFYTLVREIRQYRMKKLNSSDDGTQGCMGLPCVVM
Method in brief: as §1

[3] = test system: human lung cancer strain NCI-H441; assay: NCI-H441 cell proliferation inhibitory activity (CellTiter-Glo, 4 days); type: cell-based; conditions: read-out: NCl-H441 IC50
Procedure: A test compound was dispensed into a U-bottom 384-well plate as 40 nL serially diluted dimethyl sulfoxide solutions using a liquid handler Echo (LABCYTE). […] This cell suspension was dispensed in an amount of 40 µL per well into a plate containing the test compound, and cultured at 37°C in a 5% carbon dioxide gas incubator. Four days later, 20 µL of CellTiter-Glo (registered trademark) (Promega) was added to each well and […] was measured. […]

[4] = ratio of KD for HRAS wild-type protein to KD for KRAS
[5] = ratio of KD for GDP-bound NRAS wild-type protein to KD for KRAS
[6] = ratio of KD with respect to HRAS wild-type protein to KD with respect to KRAS
[7] = ratio of KD with respect to GDP-bound NRAS wild-type protein to KD with respect to KRAS
[8] = 50% proliferation inhibitory concentration, four days

Sequence of GDP-bound KRAS wild-type protein (P01116 1-188 isoform P01116-2): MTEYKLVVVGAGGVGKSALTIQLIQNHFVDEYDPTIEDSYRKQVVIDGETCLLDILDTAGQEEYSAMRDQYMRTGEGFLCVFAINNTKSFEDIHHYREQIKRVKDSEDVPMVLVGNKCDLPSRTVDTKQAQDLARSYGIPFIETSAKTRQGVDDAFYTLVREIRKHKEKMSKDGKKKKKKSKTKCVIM

Kd [1] [nM]	IC50 ([3]; NCI-H441 cells, 4 days) [nM]	Kd ([1]; Single Cycle Kinetics) [nM]	IC50 [3, 8] [nM]	Compound	HRAS /KRAS (HRAS wild-type protein; [4])	NRAS /KRAS [2, 5]	HRAS /KRAS (HRAS wild-type protein; [6])	NRAS /KRAS [2, 7]
2.9	122			CCOC[C@H]1C(=O)N[C@@H]([C@@H](C)CC)C(=O)N(C2CC2)CC(=O)N(C)[C@H]2C/C=C\CCN(C2=O)[C@@H](Cc2ccc(C)cc2)C(=O)N(C)CC(=O)N[C@@H](CCc2ccc(Cl)c(Cl)c2)C(=O)N2C[C@H](OCC)C[C@H]2C(=O)NC2(CC(C)(C)C2)C(=O)N(C)[C@@H](CC2CCC2)C(=O)N(C)[C@H](C(=O)N(C)C)CC(=O)N1C [PP2762]	A (a compound having 10 or more and less than 20 is denoted as A)	A (a compound having 10 or more and less than 20 is denoted as A)		
1.6	87.2			CCOC[C@H]1C(=O)N[C@@H]([C@@H](C)CC)C(=O)N(C)CC(=O)N(C)[C@H]2C/C=C\CCN(C2=O)[C@@H](CC2CCC(F)(F)CC2)C(=O)N(C)CC(=O)N[C@@H](CCc2cc(F)c(C(F)(F)F)c(F)c2)C(=O)N2C[C@@H](C)C[C@H]2C(=O)NC2(CC(C)(C)C2)C(=O)N(C)[C@@H](C(CC)CC)C(=O)N(C)[C@H](C(=O)N(C)C)CC(=O)N1C [PP2462]	A (a compound having 10 or more and less than 20 is denoted as A)	A (a compound having 10 or more and less than 20 is denoted as A)		
0.93	3.2			CCCOC[C@H]1C(=O)N[C@@H]([C@@H](C)CC)C(=O)N2CCC[C@H]2C(=O)N(C)[C@H]2C/C=C\CCN(C2=O)[C@@H](CC2CCC(F)(F)CC2)C(=O)N(C)CC(=O)N[C@@H](CCc2ccc(C(F)(F)F)c(OC)c2)C(=O)N2C[C@@H](C)C[C@H]2C(=O)N(C)C2(CCC2)C(=O)N(C)[C@@H](C2CCCC2)C(=O)N(C)[C@H](C(=O)N(C)C)CC(=O)N1C [PP2381]	A (a compound having 10 or more and less than 20 is denoted as A)	A (a compound having 10 or more and less than 20 is denoted as A)		
		0.24	15.4	CCO[C@@H]1C[C@H]2C(=O)NC3(CCC3)C(=O)N(C)[C@@H](C3CCCC3)C(=O)N(C)[C@H](C(=O)N3CCCCC3)CC(=O)N(C)[C@@H](CC(C)C)C(=O)N[C@@H]([C@@H](C)CC)C(=O)N(C)CC(=O)N(C)[C@H]3C/C=C\CCN(C3=O)[C@@H](Cc3ccc(C(F)(F)F)cc3)C(=O)N(C)CC(=O)N[C@@H](CCc3cc(F)c(C(F)(F)F)c(F)c3)C(=O)N2C1 [PP1290]			A (a compound having 10 or more and less than 20 is denoted as A)	AA (a compound having 20 or more is denoted as AA)
		0.22	37.6	CCO[C@@H]1C[C@H]2C(=O)NC3(CCC3)C(=O)N(C)[C@@H](C3CCCC3)C(=O)N(C)[C@H](C(=O)N3CCOCC3)CC(=O)N(C)[C@@H](CC3CC3)C(=O)N[C@@H]([C@@H](C)CC)C(=O)N(C)CC(=O)N(C)[C@H]3C/C=C\CCN(C3=O)[C@@H](Cc3ccc(C)cc3)C(=O)N(C)CC(=O)N[C@@H](CCc3cc(F)c(C(F)(F)F)c(F)c3)C(=O)N2C1 [PP1408]			A (a compound having 10 or more and less than 20 is denoted as A)	A (a compound having 10 or more and less than 20 is denoted as A)
1.8	39.6			CCC(CC)[C@H]1C(=O)N(C)[C@H](C(=O)N(C)C)CC(=O)N(C)[C@@H](CC2CC2)C(=O)N[C@@H]([C@@H](C)CC)C(=O)N(C)CC(=O)N(C)[C@H]2C/C=C\CCN(C2=O)[C@@H](CC2CCC(F)(F)CC2)C(=O)N(C)CC(=O)N[C@@H](CCc2ccc(C(F)(F)F)c(OC)c2)C(=O)N2C[C@@H](C)C[C@H]2C(=O)NC2(CC(C)(C)C2)C(=O)N1C [PP2494]	A (a compound having 10 or more and less than 20 is denoted as A)	A (a compound having 10 or more and less than 20 is denoted as A)		

Reference: patent EP4603105A1, “PHARMACEUTICAL COMPOSITION CONTAINING CYCLIC COMPOUND HAVING SELECTIVE KRAS INHIBITORY EFFECT AGAINST HRAS AND NRAS” (CHUGAI SEIYAKU KABUSHIKI KAISHA, priority 2022, dated 2024)
